Data reported in patent publication US11419806B2, “Prebiotic oral care methods using a saccharide” (Colgate-Palmolive Company, priority 2013, dated 2022).

Legend:
Test in all cases: Twenty-four hour optical density growth in BHI
Assay type in all cases: cell-based
[1] = tested on: Streptococcus salivarius; conditions: S salivarius
[2] = tested on: Streptococcus sobrinus; conditions: S sobrinus
[3] = tested on: Actinomyces viscosus; conditions: A viscosus
Procedure, shortened: (§1)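 Late-exponential cultures in BHI were adjusted to 1×10^7 CFU/ml and exposed to myo-inositol, D-lactitol, D-turanose or N-acetyl-D-mannosamine at final 5, 10, 20 and 25 μmol/ml, with no-saccharide controls. Incubation was anaerobic at 37° C; OD630 was read at 0 h and 24 h. Values are means of three days, each averaging quadruplicates.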

[4] = tested on: Tannerella forsythia; conditions: T forsythia
Procedure, shortened: as §1

[5] = tested on: Streptococcus mitis; conditions: S mitis
[6] = tested on: Porphyromonas gingivalis; conditions: P gingivalis
Procedure, shortened: as §1

[7] = tested on: Veillonella parvula; conditions: V parvula
Procedure, shortened: as §1

[8] = tested on: Aggregatibacter actinomycetemcomitans; conditions: A actinomycetemcomitans
[9] = tested on: Capnocytophaga sputigena; conditions: C sputigena
Procedure, shortened: as §1

[10] = tested on: Prevotella intermedia; conditions: P intermedia
Procedure, shortened: as §1

[11] = tested on: Streptococcus mutans; conditions: S mutans
[12] = tested on: Actinomyces naeslundii; conditions: A naeslundii
Procedure, shortened: as §1

[13] = tested on: Streptococcus gordonii; conditions: S gordonii

O[C@H]1[C@H](O)[C@@H](O)[C@H](O)[C@@H](O)[C@H]1O [Myo-Inositol, (1R,2R,3S,4S,5R,6S)-cyclohexane-1,2,3,4,5,6-hexol]
extent of growth: maximal OD630 over 24 hr divided by maximal OD of control (control = 1) ([1]; 5 μmol/ml): 0.9359 | extent of growth: maximal OD630 over 24 hr divided by maximal OD of control (control = 1) ([1]; 10 μmol/ml): 0.9395 | extent of growth: maximal OD630 over 24 hr divided by maximal OD of control (control = 1) ([1]; 20 μmol/ml): 0.9136 | extent of growth: maximal OD630 over 24 hr divided by maximal OD of control (control = 1) ([1]; 25 μmol/ml): 0.8905 | extent of growth: maximal OD630 over 24 hr divided by maximal OD of control (control = 1) ([2]; 5 μmol/ml): 0.9301 | extent of growth: maximal OD630 over 24 hr divided by maximal OD of control (control = 1) ([2]; 10 μmol/ml): 0.9360 | extent of growth: maximal OD630 over 24 hr divided by maximal OD of control (control = 1) ([2]; 20 μmol/ml): 0.9087 | extent of growth: maximal OD630 over 24 hr divided by maximal OD of control (control = 1) ([2]; 25 μmol/ml): 0.9224 | extent of growth: maximal OD630 over 24 hr divided by maximal OD of control (control = 1) ([3]; 5 μmol/ml): 0.8442 | extent of growth: maximal OD630 over 24 hr divided by maximal OD of control (control = 1) ([3]; 10 μmol/ml): 0.8574 | extent of growth: maximal OD630 over 24 hr divided by maximal OD of control (control = 1) ([3]; 20 μmol/ml): 0.8079 | extent of growth: maximal OD630 over 24 hr divided by maximal OD of control (control = 1) ([3]; 25 μmol/ml): 0.7647 | extent of growth: maximal OD630 over 24 hr divided by maximal OD of control (control = 1) ([4]; 5 μmol/ml): 0.9323 | extent of growth: maximal OD630 over 24 hr divided by maximal OD of control (control = 1) ([4]; 10 μmol/ml): 0.9359 | extent of growth: maximal OD630 over 24 hr divided by maximal OD of control (control = 1) ([4]; 20 μmol/ml): 0.9286 | extent of growth: maximal OD630 over 24 hr divided by maximal OD of control (control = 1) ([4]; 25 μmol/ml): 0.9460 | extent of growth: maximal OD630 over 24 hr divided by maximal OD of control (control = 1) ([5]; 5 μmol/ml): 0.9921 | extent of growth: maximal OD630 over 24 hr divided by maximal OD of control (control = 1) ([5]; 10 μmol/ml): 0.9622 | extent of growth: maximal OD630 over 24 hr divided by maximal OD of control (control = 1) ([5]; 20 μmol/ml): 0.8975 | extent of growth: maximal OD630 over 24 hr divided by maximal OD of control (control = 1) ([5]; 25 μmol/ml): 0.8423 | extent of growth: maximal OD630 over 24 hr divided by maximal OD of control (control = 1) ([6]; 5 μmol/ml): 1.0200 | extent of growth: maximal OD630 over 24 hr divided by maximal OD of control (control = 1) ([6]; 10 μmol/ml): 1.0126 | extent of growth: maximal OD630 over 24 hr divided by maximal OD of control (control = 1) ([6]; 20 μmol/ml): 0.9758 | extent of growth: maximal OD630 over 24 hr divided by maximal OD of control (control = 1) ([6]; 25 μmol/ml): 0.9855 | extent of growth: maximal OD630 over 24 hr divided by maximal OD of control (control = 1) ([7]; 5 μmol/ml): 0.9050 | extent of growth: maximal OD630 over 24 hr divided by maximal OD of control (control = 1) ([7]; 10 μmol/ml): 0.9049 | extent of growth: maximal OD630 over 24 hr divided by maximal OD of control (control = 1) ([7]; 20 μmol/ml): 0.8987 | extent of growth: maximal OD630 over 24 hr divided by maximal OD of control (control = 1) ([7]; 25 μmol/ml): 0.8933 | extent of growth: maximal OD630 over 24 hr divided by maximal OD of control (control = 1) ([8]; 5 μmol/ml): 0.6977 | extent of growth: maximal OD630 over 24 hr divided by maximal OD of control (control = 1) ([8]; 10 μmol/ml): 0.7107 | extent of growth: maximal OD630 over 24 hr divided by maximal OD of control (control = 1) ([8]; 20 μmol/ml): 0.7396 | extent of growth: maximal OD630 over 24 hr divided by maximal OD of control (control = 1) ([8]; 25 μmol/ml): 0.7361 | extent of growth: maximal OD630 over 24 hr divided by maximal OD of control (control = 1) ([9]; 5 μmol/ml): 0.8701 | extent of growth: maximal OD630 over 24 hr divided by maximal OD of control (control = 1) ([9]; 10 μmol/ml): 0.8749 | extent of growth: maximal OD630 over 24 hr divided by maximal OD of control (control = 1) ([9]; 20 μmol/ml): 0.8545 | extent of growth: maximal OD630 over 24 hr divided by maximal OD of control (control = 1) ([9]; 25 μmol/ml): 0.8789 | extent of growth: maximal OD630 over 24 hr divided by maximal OD of control (control = 1) ([10]; 5 μmol/ml): 0.9519 | extent of growth: maximal OD630 over 24 hr divided by maximal OD of control (control = 1) ([10]; 10 μmol/ml): 0.9564 | extent of growth: maximal OD630 over 24 hr divided by maximal OD of control (control = 1) ([10]; 20 μmol/ml): 0.9230 | extent of growth: maximal OD630 over 24 hr divided by maximal OD of control (control = 1) ([10]; 25 μmol/ml): 0.9158 | extent of growth: maximal OD630 over 24 hr divided by maximal OD of control (control = 1) ([11]; 5 μmol/ml): 1.1065 | extent of growth: maximal OD630 over 24 hr divided by maximal OD of control (control = 1) ([11]; 10 μmol/ml): 1.0553 | extent of growth: maximal OD630 over 24 hr divided by maximal OD of control (control = 1) ([11]; 20 μmol/ml): 0.9645 | extent of growth: maximal OD630 over 24 hr divided by maximal OD of control (control = 1) ([11]; 25 μmol/ml): 0.9449 | extent of growth: maximal OD630 over 24 hr divided by maximal OD of control (control = 1) ([12]; 5 μmol/ml): 1.0172 | extent of growth: maximal OD630 over 24 hr divided by maximal OD of control (control = 1) ([12]; 10 μmol/ml): 1.0190 | extent of growth: maximal OD630 over 24 hr divided by maximal OD of control (control = 1) ([12]; 20 μmol/ml): 1.0051 | extent of growth: maximal OD630 over 24 hr divided by maximal OD of control (control = 1) ([12]; 25 μmol/ml): 1.0000 | extent of growth: maximal OD630 over 24 hr divided by maximal OD of control (control = 1) ([13]; 5 μmol/ml): 0.9888 | extent of growth: maximal OD630 over 24 hr divided by maximal OD of control (control = 1) ([13]; 10 μmol/ml): 0.9732 | extent of growth: maximal OD630 over 24 hr divided by maximal OD of control (control = 1) ([13]; 20 μmol/ml): 0.9751 | extent of growth: maximal OD630 over 24 hr divided by maximal OD of control (control = 1) ([13]; 25 μmol/ml): 0.9954
